Earlier results, collected in US5140036A, “1,3,5-trisubstituted-1,2,4-triazole compounds for treatment of circulatory disorders” (priority 1990, dated 1992).

Columns and labels:
angiotensin II = conditions: series of binding experiments, functional assays and in vivo tests
[1] = system: angiotensin II at its receptors; conditions: commercially-available peptidic angiotensin II antagonists

residual agonist activity [1] | Structure (SMILES) | angiotensin II antagonist activity (angiotensin II)
– | CCCCc1nc(Cl)c(CC(=O)O)n1Cc1ccccc1[N+](=O)[O-] [2-butyl-4-chloro-1-(2-nitrobenzyl)imidazole-5-acetic acid] | specific competitive angiotensin II antagonist activity
– | CCCCc1nc(Cl)c(CC(=O)O)n1Cc1ccccc1Cl [2-n-butyl-4-chloro-1-(2-chlorobenzyl)imidazole-5-acetic acid] | specific competitive angiotensin II antagonist activity
significant residual agonist activity | CNCC(=O)N[C@@H](CCCN=C(N)N)C(=O)N[C@H](C(=O)N[C@@H](Cc1ccc(O)cc1)C(=O)N[C@H](C(=O)N[C@@H](Cc1cnc[nH]1)C(=O)N1CCC[C@H]1C(=O)N[C@@H](C)C(=O)O)C(C)C)C(C)C [Saralasin] | –
